Laboratory results published in US5840732A, “Imidazopyridine or imidazopyrimidine compounds, their production and use” (Takeda Chemical Industries Ltd., priority 1994, dated 1998).

Experiments:
[1] = system: ELAM-1 expression in human umbilical cord vascular endothelial cells; assay: Inhibitory activity of adhesion molecule expression (ELAM-1, cell-ELISA); format: cell-based; details: TNFα 1 ng/ml, 37° C., 3 hours
Description: (§1) Inhibitory activity of adhesion molecule expression
(§2) Test method: To human umbilical cord vascular endothelial cells (purchased from Kurabo), cultured on gelatin-coated plates, compounds at various concentrations (test compounds) were added, followed by incubation at 37° C. for 15 minutes. Human tumor necrosis factor (TNFα, purchased from Genzyme) was then added to a final concentration of 1 ng/ml, followed by incubation at 37° C. for 3 hours for ELAM-1 expression or for 5 hours for ICAM-1 expression. After the reaction, cells were fixed with glutaraldehyde; the amounts of ELAM-1 and ICAM-1 expressed were determined by cell-ELISA. Anti-ELAM-1 antibody BBA-2 and an anti-ICAM-1 antibody BBA-4 were used as the first antibodies for the defection of ELAM-1 and ICAM-1, respectively, and horse radish peroxidase-labeled rabbit anti-mouse IgG antibody was used as the second antibody to determine the amount of adhesion molecules expressed on cells observed. The compound concentration at which 50% expression was expressed as the 50% inhibitory concentration (IC50), with the amount of expression in the absence of compounds as 100 and the amount of expression in the absence of TNFα as 0.

[2] = system: ICAM-1 expression in human umbilical cord vascular endothelial cells; assay: Inhibitory activity of adhesion molecule expression (ICAM-1, cell-ELISA); format: cell-based; details: TNFα 1 ng/ml, 37° C., 5 hours
Description: as §1, §2

Row | SMILES | IC50 [1] [µM] | IC50 [2] [µM]
1 | CCCC=C1SC(=O)N(CCSc2cccc3nccn23)C1=O [compound 5] | 5.3 | 3.5
2 | CCCCCCCCCC=C1SC(=O)N(CCCCSc2cccc3nccn23)C1=O [compound 6] | 7.3 | 6.3
3 | CCCC=C1SC(=O)N(CCCCc2cccc3nccn23)C1=O [compound 7] | 2.3 | 3.1
4 | CCCC=C1SC(=O)N(CCCCOc2cccc3nccn23)C1=O [compound 8] | 3.8 | 4.4
5 | CCCC=C1OC(=O)N(CCCCSc2cccc3nccn23)C1=O [compound 9] | 2.6 | 2.4
6 | CCC=C1SC(=O)N(CCCCSc2cccc3nccn23)C1=O [compound 10] | 2.3 | 2.4
7 | CC=C1SC(=O)N(CCCCSc2cccc3nccn23)C1=O [compound 11] | 1.9 | 2.9
8 | CCCC=C1SC(=O)N(CCCc2cccc3nccn23)C1=O [compound 12] | 4.4 | 4.9
9 | CCCC=C1SC(=O)N(CSc2cccc3nccn23)C1=O [compound 13] | 5.1 | 6.3
10 | CCCC=C1SC(=O)N(CCc2cccc3nccn23)C1=O [compound 14] | 5.1 | 6.1
11 | CCCC=C1SC(=O)N(Cc2cccc3nccn23)C1=O [compound 15] | 6.2 | 7
12 | O=C1SC(=CCCc2ccccc2)C(=O)N1CCCCSc1cccc2nccn12 [compound 19] | 3 | 3.9
13 | O=C1SC(=CCCCc2ccccc2)C(=O)N1CCCCSc1cccc2nccn12 [compound 21] | 3.3 | 4
14 | CCCC=C1SC(=O)N(CCCCSc2cccc3nc(C)cn23)C1=O [compound 23] | 3.6 | 7
15 | CCCC=C1SC(=O)N(CCCCSc2nccc3nccn23)C1=O [compound 25] | 4 | 8
16 | CCCC=C1SC(=O)N(CCCCOc2cccn3cc(-c4ccccc4)nc23)C1=O [compound 26] | 4.1 | 3.7
17 | CCCC=C1SC(=O)N(CCCCOc2cccn3cc(C(=O)OCC)nc23)C1=O [compound 27] | 5 | 6.5
18 | O=C1OC(=CCCc2ccccc2)C(=O)N1CCCCOc1cccn2ccnc12 [compound 32] | 3.2 | 5.7
19 | O=C1OC(=CCCc2ccccc2)C(=O)N1CCCCSc1cccc2nccn12 [compound 33] | 2.8 | 6.3
20 | CCCC=C1SC(=O)N(CCCCOc2cccn3c(C(=O)C(F)(F)F)cnc23)C1=O [compound 34] | 5.2 | 6.1
21 | CCCC=C1SC(=O)N(CCCCSc2cccc3ncc(C(=O)C(F)(F)F)n23)C1=O [compound 35] | 3.4 | 4.6
22 | O=c1c(-c2ccccc2)c2n(c(=O)n1CCCCSc1cccc3nccn13)CCS2(=O)=O [compound 36] | 2.1 | 3.7
23 | O=C1SC(=CCCc2cccnc2)C(=O)N1CCCCSc1cccc2nccn12 [compound 38] | 3.4 | 3.7
24 | O=C1SC(=CCCc2cccnc2)C(=O)N1CCCCOc1cccn2ccnc12 [compound 39] | 3.3 | 2.4
25 | Cc1c2n(c(=O)n(CCCCSc3cccc4nccn34)c1=O)CCCS2(=O)=O [compound 40] | 1.1 | 1.8
26 | O=c1c(Cc2ccccc2)c2n(c(=O)n1CCCCSc1cccc3nccn13)CCCS2(=O)=O [compound 41] | 0.5 | 0.9
27 | CC(C)c1c2n(c(=O)n(CCCCSc3cccc4nccn34)c1=O)CCCS2(=O)=O [compound 42] | 1 | 1.5

Row | SMILES | IC50 [1] [µM] | IC50 [2] [µM]
28 | O=c1cc2n(c(=O)n1CCCCSc1cccc3nccn13)CCCS2(=O)=O [compound 43] | 2.2 | 3.5
29 | CCCC=C1SC(=O)N(CCCOc2cccn3ccnc23)C1=O [compound 47] | 3 | 4.2
30 | CCCC=C1SC(=O)N(CCCCOc2cccn3cc(C)nc23)C1=O [compound 48] | 4.6 | 6.4
31 | CCCC=C1SC(=O)N(CCCCSc2cccc3ncc(Br)n23)C1=O [compound 50] | 4.7 | 6.9
32 | O=c1c(-c2ccccc2)c2n(c(=O)n1CCCCSc1cccc3nccn13)CCC[S+]2[O-] (stereo not shown) [compound 51] | 2.8 | 6.8
33 | O=C(NCCCn1c(=O)c(-c2ccccc2)c2n(c1=O)CCCS2(=O)=O)OCCc1cccc2nccn12 [compound 53] | 6.2 | 6.3
34 | CCCC=C1SC(=O)N(CCC(C)(C)CCSc2cccc3nccn23)C1=O [compound 54] | 6.1 | 5
35 | CCCC=C1SC(=O)N(CCC2(CCSc3cccc4nccn34)CCCC2)C1=O [compound 55] | 7.3 | 5.5
36 | CN(C)Cc1cnc2cccc(SCCCCn3c(=O)c(-c4ccccc4)c4n(c3=O)CCCS4(=O)=O)n12 [compound 56] | 3.9 | 5.7
37 | CCCCCCC=C1SC(=O)N(CCCCSc2cccc3nccn23)C1=O [compound 57] | 7.9 | 7.1
38 | CCCCCCCC=C1SC(=O)N(CCCCSc2cccc3nccn23)C1=O [compound 60] | 9.2 | 9
39 | O=C1SC(=CCCCCc2ccccc2)C(=O)N1CCCCSc1cccc2nccn12 [compound 65] | 5 | 5.3
40 | O=C1SC(=CCCc2ccccc2)C(=O)N1CCCCOc1cccn2ccnc12 [compound 67] | 3.4 | 3.9
41 | CCC=C1SC(=O)N(CCCCOc2cccn3ccnc23)C1=O [compound 68] | 3.2 | 5
42 | CCCCC=C1SC(=O)N(CCCCOc2cccn3ccnc23)C1=O [compound 69] | 4 | 6.1
43 | CCCCCC=C1SC(=O)N(CCCCOc2cccn3ccnc23)C1=O [compound 70] | 5.3 | 6.9
44 | CCCCCCCC=C1SC(=O)N(CCCCOc2cccn3ccnc23)C1=O [compound 71] | 4.6 | 5.2
45 | CCCCCCCCCC=C1SC(=O)N(CCCCOc2cccn3ccnc23)C1=O [compound 72] | 6.4 | 5.6
46 | CCCCCC=C1OC(=O)N(CCCCOc2cccn3ccnc23)C1=O [compound 75] | 3.5 | 6.1
47 | CCC/C=C1\OC(=O)N(CCCCOc2cccn3c(C(=O)C(F)(F)F)cnc23)C1=O [compound 76] | 6.7 | 7.1
48 | CCC/C=C1/OC(=O)N(CCCCOc2cccn3c(C(=O)C(F)(F)F)cnc23)C1=O [compound 77] | 6.3 | 6
49 | O=C(CCCSc1cccc2nccn12)NCCCn1c(=O)c(-c2ccccc2)c2n(c1=O)CCCS2(=O)=O [compound 79] | 6.1 | 5.9
50 | COc1ccc(CCC=C2SC(=O)N(CCCCSc3cccc4nccn34)C2=O)cc1 [compound 80] | 4.6 | 4.1
51 | COc1ccccc1CCC=C1SC(=O)N(CCCCSc2cccc3nccn23)C1=O [compound 81] | 6.1 | 4.3
52 | O=C1SC(=CCCc2ccc(F)cc2)C(=O)N1CCCCSc1cccc2nccn12 [compound 82] | 4.3 | 3.6
53 | O=C1SC(=CCCc2ccccc2F)C(=O)N1CCCCSc1cccc2nccn12 [compound 83] | 3.7 | 3.8
